Laboratory results taken from ChEMBL document CHEMBL1201862, “PubChem BioAssay data set” (2004).
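Dose response: 5 concentrations. Exposure: 48 h. Format: 96-well plates. Endpoint: linear interpolation; highest concentration if not reached. GI50 is the concentration that inhibits growth by half.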 Calls of active or inactive are those of the source. Cut-off read from the data, not from the text of the source: active = GI50 up to about 1.1 µM and inactive = higher.

Tests used:
Assay in all cases: DTP human tumour cell line panel, 48 h
SK-MEL-2 = test system: SK-MEL-2
M14 = test system: M14
NCI-H23 = test system: NCI-H23
HT-29 = test system: HT-29
DMS-273 = test system: DMS-273
HOP-62 = test system: HOP-62
NCI-H226 = test system: NCI-H226
HCC 2998 = test system: HCC 2998
U-251 = test system: U-251
Malme-3M = test system: Malme-3M
HOP-92 = test system: HOP-92
SNB-19 = test system: SNB-19
SW-620 = test system: SW-620
IGROV-1 = test system: IGROV-1
A549 = test system: A549
HCT-116 = test system: HCT-116
OVCAR-8 = test system: OVCAR-8
K562 = test system: K562
RPMI-8226 = test system: RPMI-8226
NCI/ADR-RES = test system: NCI/ADR-RES

COc1cc(OC)c2c(=O)c3c([N+](=O)[O-])cccc3n(C)c2c1
GI50 (SK-MEL-2): > 100 µM (inactive) | GI50 (M14): > 100 µM (inactive) | GI50 (NCI-H23): > 100 µM (inactive) | GI50 (HT-29): > 100 µM (inactive) | GI50 (DMS-273): > 100 µM (inactive) | GI50 (HOP-62): > 100 µM (inactive) | GI50 (NCI-H226): > 100 µM (inactive) | GI50 (HCC 2998): > 100 µM (inactive) | GI50 (U-251): 94.8 µM (inactive) | GI50 (Malme-3M): > 100 µM (inactive) | GI50 (HOP-92): > 100 µM (inactive) | GI50 (SNB-19): > 100 µM (inactive) | GI50 (SW-620): > 100 µM (inactive) | GI50 (IGROV-1): > 100 µM (inactive) | GI50 (A549): > 100 µM (inactive) | GI50 (HCT-116): > 100 µM (inactive) | GI50 (OVCAR-8): > 100 µM (inactive) | GI50 (K562): > 100 µM (inactive) | GI50 (RPMI-8226): > 100 µM (inactive)

C#CC1/C(=C\C(=O)OC)CCCC1O (stereo unspecified)
GI50 (SK-MEL-2): > 100 µM (inactive) | GI50 (M14): > 100 µM (inactive) | GI50 (NCI-H23): > 100 µM (inactive) | GI50 (HT-29): > 100 µM (inactive) | GI50 (DMS-273): > 100 µM (inactive) | GI50 (HOP-62): > 100 µM (inactive) | GI50 (NCI-H226): > 100 µM (inactive) | GI50 (HCC 2998): > 100 µM (inactive) | GI50 (U-251): > 100 µM (inactive) | GI50 (Malme-3M): > 100 µM (inactive) | GI50 (HOP-92): > 100 µM (inactive) | GI50 (SNB-19): > 100 µM (inactive) | GI50 (SW-620): > 100 µM (inactive) | GI50 (IGROV-1): > 100 µM (inactive) | GI50 (A549): > 100 µM (inactive) | GI50 (HCT-116): > 100 µM (inactive) | GI50 (OVCAR-8): > 100 µM (inactive) | GI50 (K562): > 100 µM (inactive) | GI50 (RPMI-8226): > 100 µM (inactive)

CCOC(=O)Nc1cc2c(c(N)n1)N=C(c1ccccc1)[C@H](C)N2 [MIVOBULIN ISETHIONATE]
GI50 (SK-MEL-2): < 0.0001 µM (active) | GI50 (M14): 0.00011 µM (active) | GI50 (NCI/ADR-RES): < 0.0001 µM (active) | GI50 (NCI-H23): 0.00161 µM (active) | GI50 (HT-29): < 0.0001 µM (active) | GI50 (DMS-273): < 0.0001 µM (active) | GI50 (HOP-62): 0.0562 µM (active) | GI50 (NCI-H226): 0.00215 µM (active) | GI50 (HCC 2998): < 0.0001 µM (active) | GI50 (U-251): 0.0369 µM (active) | GI50 (Malme-3M): < 0.0001 µM (active) | GI50 (HOP-92): 0.01 µM (active) | GI50 (SNB-19): < 0.0001 µM (active) | GI50 (SW-620): < 0.0001 µM (active) | GI50 (IGROV-1): < 0.0001 µM (active) | GI50 (A549): < 0.0001 µM (active) | GI50 (HCT-116): < 0.0001 µM (active) | GI50 (OVCAR-8): < 0.0001 µM (active) | GI50 (K562): < 0.0001 µM (active) | GI50 (RPMI-8226): 0.000215 µM (active)

COc1ccc(/C=C2\CCC(C)(CN(C)C)C2=O)cc1OC (stereo unspecified)
GI50 (SK-MEL-2): > 100 µM (inactive) | GI50 (M14): > 100 µM (inactive) | GI50 (NCI-H23): > 100 µM (inactive) | GI50 (HT-29): > 100 µM (inactive) | GI50 (DMS-273): > 100 µM (inactive) | GI50 (HOP-62): > 100 µM (inactive) | GI50 (NCI-H226): > 100 µM (inactive) | GI50 (HCC 2998): > 100 µM (inactive) | GI50 (U-251): > 100 µM (inactive) | GI50 (Malme-3M): > 100 µM (inactive) | GI50 (HOP-92): > 100 µM (inactive) | GI50 (SNB-19): > 100 µM (inactive) | GI50 (SW-620): > 100 µM (inactive) | GI50 (IGROV-1): > 100 µM (inactive) | GI50 (A549): > 100 µM (inactive) | GI50 (HCT-116): > 100 µM (inactive) | GI50 (OVCAR-8): > 100 µM (inactive) | GI50 (K562): > 100 µM (inactive) | GI50 (RPMI-8226): > 100 µM (inactive)

CC(=O)OC1COC(N2C(=O)/C(=N\Nc3ccc([N+](=O)[O-])cc3)c3cc(Br)c([N+](=O)[O-])cc32)C(OC(C)=O)C1OC(C)=O (stereo unspecified)
GI50 (SK-MEL-2): > 100 µM (inactive) | GI50 (M14): 55.8 µM (inactive) | GI50 (NCI-H23): 31.6 µM (inactive) | GI50 (HT-29): 74.5 µM (inactive) | GI50 (DMS-273): 35.2 µM (inactive) | GI50 (HOP-62): 38.5 µM (inactive) | GI50 (NCI-H226): > 100 µM (inactive) | GI50 (HCC 2998): > 100 µM (inactive) | GI50 (U-251): 36.8 µM (inactive) | GI50 (Malme-3M): > 100 µM (inactive) | GI50 (HOP-92): 8.26 µM (inactive) | GI50 (SNB-19): > 100 µM (inactive) | GI50 (SW-620): 46 µM (inactive) | GI50 (IGROV-1): 26.2 µM (inactive) | GI50 (A549): > 100 µM (inactive) | GI50 (HCT-116): 44.6 µM (inactive) | GI50 (OVCAR-8): > 100 µM (inactive) | GI50 (K562): 41 µM (inactive) | GI50 (RPMI-8226): > 100 µM (inactive)
